The source of these data is patent publication US20240270713A1, “NOVEL COMPOUND EXHIBITING THERAPEUTIC EFFECT ON INFLAMMATORY DISEASE AS P38 MAP KINASE INHIBITOR” (PRAZERTHERAPEUTICS INC., priority 2021, published 2024).

pIC50: −log10 of the molar value.

Test [1] concerns the target p38 alpha (Homo sapiens (Human), UniProt Q16539). Description: p38α MAPK inhibitory ability (peptide/kinase mixture, development reagent, 445/520 nm). In kind it is biochemical. The following applies: 1 hour at room temperature. As for the experimental part:
Evaluation of p38a mitogen-activated protein kinase (MAPK) inhibitory ability
To determine the ability to inhibit p38 MAPK, Compounds 1 to 5 were diluted to determine the inhibitory effect depending on a concentration. Briefly, the compounds were diluted at concentrations of 1000, 333, 111, 37.0, 12.3, 4.12, 1.37, 0.457, 0.152, and 0.0495 nM, respectively, and then a peptide/kinase mixture (final 7.07-28.3 ng p38 alpha, 2 μM serine/threonine 15, 50 mM HEPES pH 7.0, 0.01% NaN3) and ATP solution were added respectively. After reacting at room temperature for 1 hour, a development reagent was added, followed by a reaction again at room temperature for 1 hour.

Test [2] deals with p-p38 MAPK (Mus musculus (Mouse), UniProt P47811). The test can be described thus: p38 MAPK protein inhibitory ability in cells (p-p38 immunoblot, LPS-treated Raw264.7). Particulars: Raw264.7 cells, 1 μM compound 24 hours, then 100 ng/ml LPS 6 hours. In kind it is cell-based. As for the experimental part: Evaluation of p38 MAPK protein inhibitory ability in cells
In order to identify inhibition of p-p38 MAPK, inhibition of p38 MAPK was identified after treating each compound to Raw264.7 cells which are obtained by converting macrophages that induces inflammation according to p-p38 MAPK activity into cancerous cells. Briefly, Raw264.7 cells were cultured in Dulbecco's modified Eagle Medium supplemented with 10% fetal bovine serum and penicillin/streptomycin (100 U/ml). Raw264.7 cells were treated with 1 μM of Compounds 1 to 5 according to the present disclosure in a culture dish respectively and cultured for 24 hours in a CO2 incubator, and then treated with 100 ng/ml of LPS, followed by additional culture for 6 hours in a CO2 incubator.
(§1) After cell culture was terminated according to the experimental conditions, cells were washed with cold phosphate buffered saline (PBS). The cells were then collected and centrifuged at 1200 rpm for 3 minutes. The pellet was lysed with 2X sample buffer (1M Tris-HCl pH 6.8, 50% glycerol, 10% SDS, 2-mercaptoethanol, 1% bromophenol blue) and boiled at 100° C. for 10 minutes. The prepared protein samples were subjected to sodium dodecyl sulfate poly acrylamide gel electrophoresis and transferred to PVDF membrane (Millipore). For a specific binding reaction between the protein in the PVDF membrane and antibody, blocking was performed in a 5% bovine serum albumin (BSA, RMbio) solution. Subsequently, the BSA solution was discarded, and the membrane was washed with PBS-T (0.5% Tween 20 in PBS). The binding reaction of the protein in the membrane and antibody was performed overnight at 4° C. and washed again with PBS-T. Finally, a secondary antibody (Cell signaling Technology) conjugated with horse radish peroxidase (HRP) was diluted in PBS-T and reacted at room temperature for 2 hours. Luminata Forte HRP substrate (Millipore) was used to determine the amount of protein in the membrane, the results of which are shown in Table 4 below.
(In western blotting, separated proteins are transferred to a membrane and probed.)

Test [3] concerns the target p-p38 MAPK (Homo sapiens (Human), UniProt Q16539). The test can be described thus: p38 MAPK protein inhibitory ability in brain-derived cells (p-p38 immunoblot, SH-SY5Y). In kind it is cell-based. As for the experimental part:
Evaluation of p38 MAPK protein inhibitory ability in brain-derived cells
In order to identify inhibition of p-p38 MAPK in brain cells, the inhibition of p38 MAPK was identified by inducing inflammation after treating each compound to SH-SYSY cells obtained by converting human neurons into cancerous cells. In short, SH-SY5Y cells were cultured in Minimum essential medium/Eagle's balanced salts supplemented with 10% fetal bovine serum and penicillin/streptomycin (100 U/ml). SH-SY5Y cells were treated with 1 μM of Compounds 4 and 6 according to the present disclosure in a culture dish respectively and cultured for 24 hours in a CO2 incubator, and then treated with 1000 ng/ml of LPS, followed by additional culture for 6 hours in a CO2 incubator.
as §1, with “The cells in the sediment were” for “The pellet was”, “Table 8” for “Table 4”

Test [4] has as its system TNFα mRNA. Description: Cytokine mRNA expression inhibitory ability, TNFα, LPS-treated BV2 cells. The class given is cell-based. Particulars: 1 μM compound 24 hours, then 1000 ng/ml LPS 24 hours. As for the experimental part: Evaluation of cytokine mRNA expression inhibitory ability by inflammatory response
In order to identify inhibition of p-p38 MAPK, the inhibition of p38 MAPK was identified by treating each compound to BV2 cells obtained by converting microglia that induces inflammation according to p-p38 MAPK activity in the brain into cancerous cells. Briefly, BV2 cells were cultured in Dulbecco's modified Eagle Medium supplemented with 10% fetal bovine serum and penicillin/streptomycin (100 U/ml). BV2 cells were treated with 1 μM of Compounds 4 to 6 according to the present disclosure in a culture dish respectively and cultured for 24 hours in a CO2 incubator, and then treated with 1000 ng/ml of LPS, followed by additional culture for 24 hours in a CO2 incubator.
After the cell culture was completed according to the experimental conditions, washing was performed with cold phosphate buffered saline (PBS). The cells were then collected and centrifuged at 1200 rpm for 3 minutes. RNA was extracted according to the method provided in the Hybrid-R total RNA purification kit (GeneAllR), 305-101). After measuring the concentration and purity of RNA using Nanodrop, cDNA was synthesized according to the method provided in TOPscript RT DryMIX (Enzynomics, RT200). […]

p-p38 MAPK (Homo sapiens (Human), UniProt Q16539), sequence (Q16539 whole entry): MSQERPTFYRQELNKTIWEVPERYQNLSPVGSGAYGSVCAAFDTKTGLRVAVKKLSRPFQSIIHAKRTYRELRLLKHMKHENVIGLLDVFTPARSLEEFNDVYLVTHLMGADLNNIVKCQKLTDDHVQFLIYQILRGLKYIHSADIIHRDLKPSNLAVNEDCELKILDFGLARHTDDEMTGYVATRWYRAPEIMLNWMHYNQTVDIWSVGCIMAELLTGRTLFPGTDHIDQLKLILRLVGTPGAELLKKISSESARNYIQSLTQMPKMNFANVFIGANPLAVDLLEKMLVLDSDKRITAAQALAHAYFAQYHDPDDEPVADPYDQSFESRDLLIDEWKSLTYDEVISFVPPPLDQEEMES
p-p38 MAPK (Mus musculus (Mouse), UniProt P47811), sequence (P47811 whole entry): as the sequence (Q16539 whole entry) above, with L48H, T263A counted along it
p38 alpha, sequence (Q16539 whole entry): as the sequence (Q16539 whole entry) above

Usually pIC50 stands for the negative decadic logarithm of the IC50, by convention in mol/L. As a reminder, the inhibition is the drop in the measured response relative to a control, in per cent. Consider `Cc1c(F)cc(C(=O)NC2CC2)cc1-c1ccc(C(=O)c2c[nH]c3ccccc23)cn1` [Compound 4, 3-(5-(1H-indole-3-carbonyl)pyridin-2-yl)-N-cyclopropyl-5-fluoro-4-methylbenzamide], for which, in test [1], the pIC50 is 7.73. Moreover, the inhibition at 1 µM was found to be 68% in test [2] and 74.6% in test [3] (1 μM compound 24 hours, then 1000 ng/ml LPS 6 hours). In addition, in test [3] (1 μM), the “p38 phosphorylation in cells derived from human (result in words)” value is recorded as “effectively inhibited p38 phosphorylation”. Also, the “TNFα mRNA inhibition” value in test [4] is listed as 24.5%.
